Laboratory results published in patent publication US20080293815A1, “HCA FOR IMPROVED HDL SERUM LIPIDS PROFILE” (Glykon Technologies Group, LLC, priority 2006, published 2008).
Values joined by “and” are separate entries in the source; they are usually repeats but may differ in a detail not shown here. Equal entries are not always repeated.

How the values were obtained:
[1] = tested on: rats; details: physiologic doses; cited from earlier work
[2] = animal model, U.S. Pat. No. 6,221,901; cited from earlier work
[3] = tested on: male rats of Wistar strain; assay: Animal trial: serum total cholesterol, HDL and LDL in rats on cholesterol diet; format: in vivo, rat; details: for total cholesterol reduction (lowering) in comparison to the starting condition: 2 weeks; for HDL, Average / LDL, Average / Total cholesterol, Average: group average; for HDL / LDL / Total cholesterol: individual rat
Description: (§1) During the adaptation period, health was monitored by weighing and observing the animals. […] After 10 days of cholesterol-containing feed, all animals were in a state of hypercholesterolemia. One group served as the control, whereas group II, III, and IV received 0.5%, 1%, and 2% of KHCA (produced via the method of Example 2), respectively, in addition to the cholesterol diet. The salt solutions were given orally in 2 ml water daily. Group I received 2 ml of distilled water per 200 g body weight; group II received 1.03 mg KHCA in 2 ml water per 200 body weight; group III 2.06 mg; and group IV 4.12 mg. These treatments were continued for 2 weeks.
The animals were fasted for 12 hours prior to blood withdrawal. Rats were weighed and the 3-4 ml blood was obtained by amputating 2-3 cm of the tail. The blood was collected, let stand at room temperature for 30 minutes, and then centrifuged for 10-15 minutes. The serum was separated and refrigerated at 4° C. until ready for cholesterol analysis. Cholesterol level of the serum was analyzed using diagnostic kit (Boehringer Mannheim). Total cholesterol, LDL, and HDL were determined through spectrophotometric instrument (Hitachi). These are protocols frequently used in clinical laboratories.
Student's T-test was used to evaluate whether there was a difference between the control and each of the treated groups by comparing the data before and after the treatment. One-way variance analysis was performed to see if there was a statistically significant difference among the groups.

[4] = Animal trial: body weight, feed and water consumption, feces; format: in vivo, rat; details: for Body weight: group average
Description: as §1

[5] = 0.5% KHCA (1.03 mg/day oral, 2 weeks), End Day 24
[6] = 0.5% KHCA group, Hypercholesterolemia Day 10 (before treatment)
[7] = 0.5% KHCA group, Start (before diet and treatment)
[8] = 1.0% KHCA (2.06 mg/day oral, 2 weeks), End Day 24
[9] = 1.0% KHCA group, Hypercholesterolemia Day 10 (before treatment)
[10] = 1.0% KHCA group, Start (before diet and treatment)
[11] = 2.0% KHCA (4.12 mg/day oral, 2 weeks), End Day 24
[12] = 2.0% KHCA group, Hypercholesterolemia Day 10 (before treatment)
[13] = 2.0% KHCA group, Start (before diet and treatment)
[14] = 2 ml of 2 percent daily for two weeks
[15] = 2 ml of 2 percent daily, value before the two weeks treatment
[16] = KHCA 0.5% group, Hyper-cholesterolemia (Day 10), before treatment
[17] = KHCA 0.5% group, Start (before diet and treatment)
[18] = KHCA 0.5%, 2 weeks oral, End (Day 24)
[19] = KHCA 1.0% group, Hyper-cholesterolemia (Day 10), before treatment
[20] = KHCA 1.0% group, Start (before diet and treatment)
[21] = KHCA 1.0%, 2 weeks oral, End (Day 24)
[22] = KHCA 2.0% group, Hyper-cholesterolemia (Day 10), before treatment
[23] = KHCA 2.0% group, Start (before diet and treatment)
[24] = KHCA 2.0%, 2 weeks oral, End (Day 24)
[25] = KHCA administration versus control group

## O=C([O-])CC(O)(C(=O)[O-])C(O)C(=O)[O-].[K+].[Mg+2] (centres unmarked) [potassium-magnesium HCA, Potassium-Magnesium Hydroxycitrate Salt]
[1]
  benefits with regard to insulin metabolism and blood pressure regulation: significant results

## Magnesium HCA
[2]
  increase in HDL: 8.5%

## O=C([O-])CC(O)(C(=O)[O-])C(O)C(=O)[O-].[K+].[K+].[K+] (centres unmarked) [KHCA, Potassium HCA Salt]
[3]; 0.5% K-HCA
  total cholesterol reduction (lowering) in comparison to the starting condition: 1.6 mg·dL
[3]; [5]
  HDL, Average: 49.2 mg/dL
  LDL, Average: 64.6 mg/dL
  Total cholesterol, Average: 79.2 mg/dL
  HDL: 40 mg/dL and 59 mg/dL and 43 mg/dL and 53 mg/dL and 51 mg/dL
  LDL: 59 mg/dL and 77 mg/dL and 71 mg/dL and 60 mg/dL and 56 mg/dL
  Total cholesterol: 82 mg/dL and 80 mg/dL and 76 mg/dL and 79 mg/dL (2×)
[3]; [6]
  HDL, Average: 31 mg/dL
  LDL, Average: 63.2 mg/dL
  Total cholesterol, Average: 81 mg/dL
  HDL: 27 mg/dL and 28 mg/dL and 39 mg/dL and 31 mg/dL and 30 mg/dL
  LDL: 60 mg/dL (2×) and 70 mg/dL and 67 mg/dL and 59 mg/dL
  Total cholesterol: 83 mg/dL and 84 mg/dL and 76 mg/dL and 80 mg/dL and 82 mg/dL
[3]; [7]
  HDL, Average: 39 mg/dL
  LDL, Average: 28.8 mg/dL
  Total cholesterol, Average: 72.6 mg/dL
  HDL: 37 mg/dL and 40 mg/dL and 41 mg/dL and 39 mg/dL and 38 mg/dL
  LDL: 31 mg/dL and 28 mg/dL and 33 mg/dL and 27 mg/dL and 25 mg/dL
  Total cholesterol: 74 mg/dL and 73 mg/dL and 69 mg/dL and 72 mg/dL and 75 mg/dL
[3]; [8]
  HDL, Average: 53 mg/dL
  LDL, Average: 58.2 mg/dL
  Total cholesterol, Average: 71 mg/dL
  HDL: 58 mg/dL and 60 mg/dL and 49 mg/dL and 46 mg/dL and 52 mg/dL
  LDL: 69 mg/dL and 51 mg/dL and 48 mg/dL and 60 mg/dL and 63 mg/dL
  Total cholesterol: 73 mg/dL and 71 mg/dL and 75 mg/dL and 69 mg/dL and 67 mg/dL
[3]; [9]
  HDL, Average: 31.8 mg/dL
  LDL, Average: 60.4 mg/dL
  Total cholesterol, Average: 79.6 mg/dL
  HDL: 28 mg/dL and 37 mg/dL (2×) and 30 mg/dL and 27 mg/dL
  LDL: 67 mg/dL and 59 mg/dL and 54 mg/dL and 60 mg/dL and 62 mg/dL
  Total cholesterol: 75 mg/dL and 82 mg/dL and 84 mg/dL and 80 mg/dL and 77 mg/dL
[3]; [10]
  HDL, Average: 39 mg/dL
  LDL, Average: 29 mg/dL
  Total cholesterol, Average: 72.6 mg/dL
  HDL: 36 mg/dL and 40 mg/dL and 43 mg/dL and 39 mg/dL and 37 mg/dL
  LDL: 28 mg/dL and 29 mg/dL and 33 mg/dL and 30 mg/dL and 25 mg/dL
  Total cholesterol: 69 mg/dL and 74 mg/dL and 72 mg/dL and 75 mg/dL and 73 mg/dL
[3]; 1.0% KHCA
  total cholesterol reduction (lowering) in comparison to the starting condition: 2.06 mg·dL
[3]; 2.0% (4.12 mg) KHCA daily, control group decreased
  change of HDL concentration in blood serum: increased
[3]; 2.0% KHCA (4.12 mg daily)
  total cholesterol reduction (lowering) in comparison to the starting condition: 12.2 mg·dL
[3]; [11]
  HDL, Average: 63.4 mg/dL
  LDL, Average: 50 mg/dL
  Total cholesterol, Average: 61.2 mg/dL
  HDL: 64 mg/dL and 61 mg/dL and 67 mg/dL and 59 mg/dL and 66 mg/dL
  LDL: 61 mg/dL and 46 mg/dL and 50 mg/dL and 44 mg/dL and 49 mg/dL
  Total cholesterol: 59 mg/dL and 66 mg/dL and 52 mg/dL and 58 mg/dL and 71 mg/dL
[3]; [12]
  HDL, Average: 34.6 mg/dL
  LDL, Average: 63.2 mg/dL
  Total cholesterol, Average: 82 mg/dL
  HDL: 31 mg/dL and 37 mg/dL and 40 mg/dL and 33 mg/dL and 32 mg/dL
  LDL: 69 mg/dL and 61 mg/dL and 59 mg/dL and 60 mg/dL and 67 mg/dL
  Total cholesterol: 83 mg/dL and 85 mg/dL and 81 mg/dL and 79 mg/dL and 82 mg/dL
[3]; [13]
  HDL, Average: 38.8 mg/dL
  LDL, Average: 29.8 mg/dL
  Total cholesterol, Average: 73.4 mg/dL
  HDL: 38 mg/dL and 40 mg/dL and 41 mg/dL and 36 mg/dL and 39 mg/dL
  LDL: 31 mg/dL and 29 mg/dL and 26 mg/dL and 33 mg/dL and 30 mg/dL
  Total cholesterol: 75 mg/dL and 70 mg/dL and 72 mg/dL and 73 mg/dL and 77 mg/dL
[3]; [14]
  HDL level, after treatment: 63 mg/dL
  serum cholesterol LDL level, after treatment: 50 mg·dL
[3]; [15]
  HDL level, before treatment: 35 mg/dL
  serum cholesterol LDL level, before treatment: 63 mg/dL
[3]; [16]
  LDL/HDL Ratio: 2.04
  Total Cholesterol/HDL: 2.61
[3]; [17]
  LDL/HDL Ratio: 0.74
  Total Cholesterol/HDL: 1.86
[3]; [18]
  LDL/HDL Ratio: 1.31
  Total Cholesterol/HDL: 1.61
[3]; [19]
  LDL/HDL Ratio: 1.9
  Total Cholesterol/HDL: 2.50
[3]; [20]
  LDL/HDL Ratio: 0.74
  Total Cholesterol/HDL: 1.86
[3]; [21]
  LDL/HDL Ratio: 1.1
  Total Cholesterol/HDL: 1.34
[3]; [22]
  LDL/HDL Ratio: 1.83
  Total Cholesterol/HDL: 2.36
[3]; [23]
  LDL/HDL Ratio: 0.77
  Total Cholesterol/HDL: 1.89
[3]; [24]
  LDL/HDL Ratio: 0.79
  Total Cholesterol/HDL: 0.97
[1]
  benefits with regard to insulin metabolism and blood pressure regulation: significant results
[4]; 0.5% KHCA (1.03 mg/day oral), At Hypercholesterolemia, before treatment
  Body weight: 202.4 grams
[4]; 0.5% KHCA (1.03 mg/day oral), End of Experiment, after 2 weeks treatment
  Body weight: 199.5 grams
[4]; 0.5% KHCA (1.03 mg/day oral), Start of Experiment, before cholesterol diet and treatment
  Body weight: 162.8 grams
[4]; 1.0% KHCA (2.06 mg/day oral), At Hypercholesterolemia, before treatment
  Body weight: 195.0 grams
[4]; 1.0% KHCA (2.06 mg/day oral), End of Experiment, after 2 weeks treatment
  Body weight: 193.2 grams
[4]; 1.0% KHCA (2.06 mg/day oral), Start of Experiment, before cholesterol diet and treatment
  Body weight: 157.7 grams
[4]; 2.0% KHCA (4.12 mg/day oral), At Hypercholesterolemia, before treatment
  Body weight: 192.7 grams
[4]; 2.0% KHCA (4.12 mg/day oral), End of Experiment, after 2 weeks treatment
  Body weight: 183.7 grams
[4]; 2.0% KHCA (4.12 mg/day oral), Start of Experiment, before cholesterol diet and treatment
  Body weight: 166.9 grams
[4]; [14]
  effect on body weight: reduced body weight
[4]; [25]
  feces consistency: softer
  feed consumption: lower feed consumption
